According to the NIST ThermoML archive (doi:10.1016/j.tca.2012.07.021):

How the values were obtained:
[1] = Crystal; DTA
[2] = molar heat capacity at constant pressure; conditions: 101.33 kPa, Crystal, Small sample (50 mg) DSC
[3] = Molar enthalpy of transition or fusion; conditions: Crystal; DSC

O.O.O.O.O.O.[Cl-].[Cl-].[Mg+2] [magnesium chloride hexahydrate]
Conditions	Molar enthalpy of transition or fusion [kcal/mol]	Normal melting temperature [°C]
[1]	–	117.5
[3]	8.21	–

[2]
Conditions	molar heat capacity at constant pressure [J/K/mol]
298.15 K	336.4
299.15 K	336.1
300.15 K	336.2
301.15 K	336.7
302.15 K	337.2
303.15 K	337.8
304.15 K	338.3
305.15 K	338.8
306.15 K	339.3
307.15 K	339.8
308.15 K	340.3
309.15 K	340.9
310.15 K	341.4
311.15 K	342
312.15 K	342.5
313.15 K	343
314.15 K	343.5
315.15 K	344.1
316.15 K	344.6
317.15 K	345.2
318.15 K	345.7
319.15 K	346.3
320.15 K	346.9
321.15 K	347.4
322.15 K	348
323.15 K	348.5
324.15 K	349.1
325.15 K	349.6
326.15 K	350.1
327.15 K	350.7
328.15 K	351.3
329.15 K	351.8
330.15 K	352.4
331.15 K	353
332.15 K	353.6
333.15 K	354.2
334.15 K	354.8
335.15 K	355.4
336.15 K	355.9
337.15 K	356.5
338.15 K	357.1
339.15 K	357.8
340.15 K	358.4
341.15 K	359.1
342.15 K	359.7
343.15 K	360.3
344.15 K	360.9
345.15 K	361.5
346.15 K	362.2
347.15 K	362.9
348.15 K	363.6
349.15 K	364.3
350.15 K	365
351.15 K	365.6
352.15 K	366.3
353.15 K	367
354.15 K	367.8
355.15 K	368.6
356.15 K	369.3
357.15 K	370.1
358.15 K	370.8
359.15 K	371.7
360.15 K	372.4
361.15 K	373.3
362.15 K	374.2
363.15 K	375.1
364.15 K	376
365.15 K	377
366.15 K	377.9
367.15 K	379
368.15 K	380
369.15 K	381.1
370.15 K	382.1
371.15 K	383.3
372.15 K	384.4
373.15 K	385.6
374.15 K	386.8
375.15 K	388.1
376.15 K	389.3
377.15 K	390.6
378.15 K	392
379.15 K	393.4
380.15 K	394.9
381.15 K	396.4
382.15 K	397.8
383.15 K	399.4
384.15 K	401.3
385.15 K	403.3
386.15 K	405.5
387.15 K	409.7
388.15 K	418.7
389.15 K	451.6
